Where “and” joins values, the source holds several entries; their conditions need not be identical. Equal entries are not always repeated. Toxic doses and inconclusive results are not listed.

The test system of the assay is CD2F1 mice, L1210 leukemia ip, survival T/C. Kind of assay: NCI In Vivo Anticancer Drug Screen. Data for tumor model L1210 Leukemia (intraperitoneal) in CD2F1 (CDF1) mice. The conditions noted are these: higher = longer survival. Put shortly:
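Mice carrying a transplanted tumor received test compound or vehicle alone. The value is the measurement in the treated group divided by that in the vehicle-treated control group.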

[1] abbreviates: endpoint: mean survival time, dose: 50.0 mg/kg/injection, schedule: Q01DX009 (ip), vehicle: saline with Tween-80.
Where [2] appears, read: endpoint: mean survival time, dose: 100.0 mg/kg/injection, schedule: Q01DX001 (ip), vehicle: saline with Tween-80.
Setting [3] is: endpoint: mean survival time, dose: 100.0 mg/kg/injection, schedule: Q04DX002 (ip), vehicle: saline with Tween-80.
The mark [4] stands for this setting: endpoint: mean survival time, dose: 100.0 mg/kg/injection, schedule: Q04DX003 (ip), vehicle: saline with Tween-80.
The mark [5] stands for this setting: endpoint: mean survival time, dose: 200.0 mg/kg/injection, schedule: Q01DX001 (ip), vehicle: saline with Tween-80.
Setting [6] is: endpoint: mean survival time, dose: 200.0 mg/kg/injection, schedule: Q04DX002 (ip), vehicle: saline with Tween-80.
[7] abbreviates: endpoint: mean survival time, dose: 200.0 mg/kg/injection, schedule: Q04DX003 (ip), vehicle: saline with Tween-80.
Where [8] appears, read: endpoint: mean survival time, dose: 400.0 mg/kg/injection, schedule: Q01DX001 (ip), vehicle: saline with Tween-80.
Setting [9] is: endpoint: mean survival time, dose: 400.0 mg/kg/injection, schedule: Q04DX002 (ip), vehicle: saline with Tween-80.
Where [10] appears, read: endpoint: mean survival time, dose: 100.0 mg/kg/injection, schedule: Q01DX009 (ip), vehicle: saline with Tween-80.
[11] abbreviates: endpoint: mean survival time, dose: 200.0 mg/kg/injection, schedule: Q01DX009 (ip), vehicle: saline with Tween-80.
Setting [12] is: endpoint: mean survival time, dose: 100.0 mg/kg/injection, schedule: Q01DX009 (ip), vehicle: saline.
[13] abbreviates: endpoint: mean survival time, dose: 50.0 mg/kg/injection, schedule: Q04DX002 (ip), vehicle: saline with Tween-80.
The mark [14] stands for this setting: endpoint: mean survival time, dose: 400.0 mg/kg/injection, schedule: Q04DX003 (ip), vehicle: saline with Tween-80.
Setting [15] is: endpoint: mean survival time, dose: 100.0 mg/kg/injection, schedule: Q04DX003 (ip), vehicle: Klucel (hydroxypropylcellulose) (HPC).
[16] abbreviates: endpoint: mean survival time, dose: 200.0 mg/kg/injection, schedule: Q04DX003 (ip), vehicle: Klucel (hydroxypropylcellulose) (HPC).
Setting [17] is: endpoint: mean survival time, dose: 400.0 mg/kg/injection, schedule: Q04DX003 (ip), vehicle: Klucel (hydroxypropylcellulose) (HPC).

Consider `Nc1nc(N)c(-c2ccc(Cl)c(Cl)c2)c(CP(Cl)(Cl)(Cl)Br)n1`, for which the T/C (endpoint: mean survival time, dose: 12.5 mg/kg/injection, schedule: Q01DX009 (ip), vehicle: Klucel (hydroxypropylcellulose) (HPC)) was 100 % of control; the T/C (endpoint: mean survival time, dose: 25.0 mg/kg/injection, schedule: Q01DX009 (ip), vehicle: Klucel (hydroxypropylcellulose) (HPC)) was 94 % of control; the T/C (endpoint: mean survival time, dose: 50.0 mg/kg/injection, schedule: Q01DX009 (ip), vehicle: Klucel (hydroxypropylcellulose) (HPC)) is 102 % of control; the T/C under setting [1] is 160 % of control; the T/C under setting [2] is 98 % of control; the T/C (endpoint: mean survival time, dose: 100.0 mg/kg/injection, schedule: Q01DX009 (ip), vehicle: Klucel (hydroxypropylcellulose) (HPC)) is 88 % of control. In addition, the T/C under setting [3] was 94 % of control; the T/C under setting [4] was 95 % of control; the T/C under setting [5] is 90 % of control; the T/C under setting [6] is 107 % of control; the T/C under setting [7] was 100 % of control; the T/C under setting [8] is 105 % of control. Moreover, the T/C under setting [9] was 100 % of control.
Consider `CN(C)C/C(=N\OC(=O)c1ccccc1)c1ccc(Cl)cc1`, for which the T/C reads like this: under setting [1], 107 % of control; under setting [2], 96 % of control; under setting [10], 96 % of control; under setting [5], 104 % of control; under setting [11], 96 % of control; under setting [8], 93 % of control.
On to `CC(=O)SCC(C)CCl` (stereo unspecified), for which the T/C under setting [12] is 101 % of control; the T/C (endpoint: mean survival time, dose: 200.0 mg/kg/injection, schedule: Q01DX009 (ip), vehicle: saline) is 98 % of control; the T/C (endpoint: mean survival time, dose: 400.0 mg/kg/injection, schedule: Q01DX009 (ip), vehicle: saline) is 104 % of control.
On to `NNS(=O)(=O)c1ccccc1`, for which the T/C (endpoint: mean survival time, dose: 25.0 mg/kg/injection, schedule: Q04DX003 (ip), vehicle: saline with Tween-80) was 97 % of control; the T/C (endpoint: mean survival time, dose: 50.0 mg/kg/injection, schedule: Q04DX003 (ip), vehicle: saline with Tween-80) was 97 % of control; the T/C under setting [4] was 94 % of control.
Turning to `CCCCCCC[CH2][Sn]1([CH2]CCCCCCC)[O]OC(c2ccccc2)[O]1` (stereo unspecified), the T/C under setting [13] is 92 % of control.
As to `CC(O)CN1CCOCC1` (stereo unspecified), the T/C is, setting by setting: under setting [10], 101 % of control; under setting [11], 105 % of control; (endpoint: mean survival time, dose: 400.0 mg/kg/injection, schedule: Q01DX009 (ip), vehicle: saline with Tween-80) 100 % of control.
Take `O=S(CC(O)(c1ccccc1)c1ccccc1)c1ccccc1` (stereo unspecified): the T/C was 93 % of control under setting [4], 97 % of control under setting [7] and 97 % of control under setting [14].
Consider `COC(=O)c1c(F)c(F)c(Nc2c(F)c(F)c(C(=O)OC)c(F)c2F)c(F)c1F`, for which the T/C under setting [4] is 95 % of control, the T/C under setting [7] is 95 % of control and the T/C under setting [14] was 91 % of control.
As to `CCOC(=O)Cc1c(C)[nH]c2c(Br)cc(C)c(C)c12`, the T/C reads like this: (endpoint: mean survival time, dose: 100.0 mg/kg/injection, schedule: Q01DX001 (ip), vehicle: other) 98 % of control; (endpoint: mean survival time, dose: 200.0 mg/kg/injection, schedule: Q01DX001 (ip), vehicle: other) 89 % of control; (endpoint: mean survival time, dose: 400.0 mg/kg/injection, schedule: Q01DX001 (ip), vehicle: other) 110 % of control.
As for `C=C(C)CS(=O)(=O)Cc1ccccc1`, the T/C (endpoint: mean survival time, dose: 50.0 mg/kg/injection, schedule: Q01DX001 (ip), vehicle: Klucel (hydroxypropylcellulose) (HPC)) is 96 % of control; the T/C (endpoint: mean survival time, dose: 100.0 mg/kg/injection, schedule: Q01DX001 (ip), vehicle: Klucel (hydroxypropylcellulose) (HPC)) was 102 % of control; the T/C (endpoint: mean survival time, dose: 200.0 mg/kg/injection, schedule: Q01DX001 (ip), vehicle: Klucel (hydroxypropylcellulose) (HPC)) was 102 % of control.
In the case of `Nc1ccn(CCC(COCc2ccccc2)COCc2ccccc2)c(=O)n1`, the T/C under setting [15] is 100 % of control, the T/C under setting [16] was 96 % of control and the T/C under setting [17] was 96 % of control.
On to `Cc1ccc(CCC=O)o1`, for which the T/C is, setting by setting: under setting [13], 100 % of control; under setting [3], 100 % of control; under setting [6], 100 % of control.
Consider `Cc1ccc(C)c(C(=O)c2ccccc2C(N)=O)c1`, for which the T/C reads like this: under setting [1], 94 % of control; under setting [10], 92 % of control; under setting [11], 88 % of control.
Consider `O=C(/C=C/c1ccccc1)N1CCOCC1`, for which the T/C (endpoint: mean survival time, dose: 50.0 mg/kg/injection, schedule: Q04DX003 (ip), vehicle: saline) was 102 % of control; the T/C (endpoint: mean survival time, dose: 100.0 mg/kg/injection, schedule: Q04DX003 (ip), vehicle: saline) was 96 % of control; the T/C (endpoint: mean survival time, dose: 200.0 mg/kg/injection, schedule: Q04DX003 (ip), vehicle: saline) is 100 % of control.
In the case of `CCOC(=O)C(S(C)(=O)=O)S(C)(=O)=O`, the T/C was 97 % of control (endpoint: mean survival time, dose: 75.0 mg/kg/injection, schedule: Q01DX001 (ip), vehicle: saline with Tween-80); 108 % of control (endpoint: mean survival time, dose: 150.0 mg/kg/injection, schedule: Q01DX001 (ip), vehicle: saline with Tween-80); 98 % of control (endpoint: mean survival time, dose: 300.0 mg/kg/injection, schedule: Q01DX001 (ip), vehicle: saline with Tween-80).
As to `CN1NC(c2ccccc2)C2CN(C3CCCCC3)C(=O)C21O` (stereo unspecified), the T/C is, setting by setting: under setting [4], 92 % of control; under setting [7], 88 % of control; under setting [14], 101 % of control.
As for `CC(=O)Nc1ccc2cc3ccc(NC(C)=O)cc3nc2c1`, the T/C is 98 % of control (endpoint: mean survival time, dose: 100.0 mg/kg/injection, schedule: Q04DX002 (ip), vehicle: saline); 98 % of control (endpoint: mean survival time, dose: 200.0 mg/kg/injection, schedule: Q04DX002 (ip), vehicle: saline); 98 % of control (endpoint: mean survival time, dose: 400.0 mg/kg/injection, schedule: Q04DX002 (ip), vehicle: saline).
Consider `O=C(O)CCOc1ccc(F)cc1F`, for which the T/C reads like this: under setting [3], 86 % of control; under setting [6], 90 % of control; under setting [9], 86 % of control.
As to `Nc1n[nH]c(=S)s1`, the T/C under setting [3] is 107 % of control and the T/C under setting [6] is 96 % of control.
For the compound `c1ccc2c(c1)OP(OP1Oc3ccccc3O1)O2`, the T/C is 98 % of control (endpoint: mean survival time, dose: 25.0 mg/kg/injection, schedule: Q01DX009 (ip), vehicle: saline with Tween-80); 98 % of control under setting [1]; 107 % of control under setting [10]; 103 % of control (endpoint: mean survival time, dose: 100.0 mg/kg/injection, schedule: Q04DX003 (ip), vehicle: acetone).
Consider `Cc1ccc(S(=O)(=O)OC2C3OCC(O3)C(O)C2O)cc1` (stereo unspecified), for which the T/C was 97 % of control under setting [4], 94 % of control under setting [7] and 94 % of control under setting [14].
For `N#Cc1nc2c(n(O)c1=N)CCC/C2=N\O`, the T/C by setting is: under setting [15], 98 % of control; under setting [16], 98 % of control; under setting [17], 91 % of control.
Take `CC(=O)/C(=C\c1ccc(Cl)c(Cl)c1)C(=O)CCN(C)C`: the T/C runs as follows: (endpoint: median survival time, dose: 12.5 mg/kg/injection, schedule: Q01DX009 (ip), vehicle: saline) 113 % of control and 98 % of control; (endpoint: median survival time, dose: 25.0 mg/kg/injection, schedule: Q01DX009 (ip), vehicle: saline) 95 % of control and 104 % of control and 109 % of control; (endpoint: median survival time, dose: 50.0 mg/kg/injection, schedule: Q01DX009 (ip), vehicle: saline) 113 % of control and 115 % of control and 110 % of control; (endpoint: median survival time, dose: 100.0 mg/kg/injection, schedule: Q01DX009 (ip), vehicle: saline) 97 % of control and 105 % of control.
For `CC(C)(C)C(=O)CC(=O)C(C)(C)C.CC(C)(C)C(=O)CC(=O)C(C)(C)C.CC(C)(C)C(=O)CC(=O)C(C)(C)C.[Dy]`, the T/C reads like this: under setting [4], 97 % of control; under setting [7], 94 % of control; under setting [14], 94 % of control.
`O=c1cn[nH]c(=O)[nH]1`: the T/C was 94 % of control and 100 % of control (endpoint: median survival time, dose: 62.5 mg/kg/injection, schedule: Q01DX009 (ip), vehicle: saline); 100 % of control (endpoint: median survival time, dose: 125.0 mg/kg/injection, schedule: Q01DX009 (ip), vehicle: saline); 122 % of control and 100 % of control (endpoint: median survival time, dose: 250.0 mg/kg/injection, schedule: Q01DX009 (ip), vehicle: saline); 111 % of control and 112 % of control (endpoint: median survival time, dose: 500.0 mg/kg/injection, schedule: Q01DX009 (ip), vehicle: saline).
On to `CC(=O)NC(CSC(c1ccccc1)(c1ccccc1)c1ccccc1)C(=O)O` (stereo unspecified), for which the T/C is, setting by setting: (endpoint: mean survival time, dose: 25.0 mg/kg/injection, schedule: Q01DX009 (ip), vehicle: saline) 101 % of control; (endpoint: mean survival time, dose: 50.0 mg/kg/injection, schedule: Q01DX009 (ip), vehicle: saline) 100 % of control; under setting [12], 101 % of control.

These data come from PubChem BioAssay AID256 (DTP/NCI, 2004).
